Measured values as given in article PMC3878625, “Inhibitory effects of grape skin extract and resveratrol on fatty acid synthase” (BMC Complementary and Alternative Medicine, 2013).

Target: T1, Fatty acid synthase (FAS) (Gallus gallus, UniProt P12276)
T1 construct: gene FASN; FAS purified from chicken liver
Assay: spectrophotometric NADPH oxidation assay ([…] nm) of purified FAS, overall and KR reactions; time-dependent inhibition and Lineweaver-Burk kinetics
Format: biochemical

T1 sequence (P12276 2-2512): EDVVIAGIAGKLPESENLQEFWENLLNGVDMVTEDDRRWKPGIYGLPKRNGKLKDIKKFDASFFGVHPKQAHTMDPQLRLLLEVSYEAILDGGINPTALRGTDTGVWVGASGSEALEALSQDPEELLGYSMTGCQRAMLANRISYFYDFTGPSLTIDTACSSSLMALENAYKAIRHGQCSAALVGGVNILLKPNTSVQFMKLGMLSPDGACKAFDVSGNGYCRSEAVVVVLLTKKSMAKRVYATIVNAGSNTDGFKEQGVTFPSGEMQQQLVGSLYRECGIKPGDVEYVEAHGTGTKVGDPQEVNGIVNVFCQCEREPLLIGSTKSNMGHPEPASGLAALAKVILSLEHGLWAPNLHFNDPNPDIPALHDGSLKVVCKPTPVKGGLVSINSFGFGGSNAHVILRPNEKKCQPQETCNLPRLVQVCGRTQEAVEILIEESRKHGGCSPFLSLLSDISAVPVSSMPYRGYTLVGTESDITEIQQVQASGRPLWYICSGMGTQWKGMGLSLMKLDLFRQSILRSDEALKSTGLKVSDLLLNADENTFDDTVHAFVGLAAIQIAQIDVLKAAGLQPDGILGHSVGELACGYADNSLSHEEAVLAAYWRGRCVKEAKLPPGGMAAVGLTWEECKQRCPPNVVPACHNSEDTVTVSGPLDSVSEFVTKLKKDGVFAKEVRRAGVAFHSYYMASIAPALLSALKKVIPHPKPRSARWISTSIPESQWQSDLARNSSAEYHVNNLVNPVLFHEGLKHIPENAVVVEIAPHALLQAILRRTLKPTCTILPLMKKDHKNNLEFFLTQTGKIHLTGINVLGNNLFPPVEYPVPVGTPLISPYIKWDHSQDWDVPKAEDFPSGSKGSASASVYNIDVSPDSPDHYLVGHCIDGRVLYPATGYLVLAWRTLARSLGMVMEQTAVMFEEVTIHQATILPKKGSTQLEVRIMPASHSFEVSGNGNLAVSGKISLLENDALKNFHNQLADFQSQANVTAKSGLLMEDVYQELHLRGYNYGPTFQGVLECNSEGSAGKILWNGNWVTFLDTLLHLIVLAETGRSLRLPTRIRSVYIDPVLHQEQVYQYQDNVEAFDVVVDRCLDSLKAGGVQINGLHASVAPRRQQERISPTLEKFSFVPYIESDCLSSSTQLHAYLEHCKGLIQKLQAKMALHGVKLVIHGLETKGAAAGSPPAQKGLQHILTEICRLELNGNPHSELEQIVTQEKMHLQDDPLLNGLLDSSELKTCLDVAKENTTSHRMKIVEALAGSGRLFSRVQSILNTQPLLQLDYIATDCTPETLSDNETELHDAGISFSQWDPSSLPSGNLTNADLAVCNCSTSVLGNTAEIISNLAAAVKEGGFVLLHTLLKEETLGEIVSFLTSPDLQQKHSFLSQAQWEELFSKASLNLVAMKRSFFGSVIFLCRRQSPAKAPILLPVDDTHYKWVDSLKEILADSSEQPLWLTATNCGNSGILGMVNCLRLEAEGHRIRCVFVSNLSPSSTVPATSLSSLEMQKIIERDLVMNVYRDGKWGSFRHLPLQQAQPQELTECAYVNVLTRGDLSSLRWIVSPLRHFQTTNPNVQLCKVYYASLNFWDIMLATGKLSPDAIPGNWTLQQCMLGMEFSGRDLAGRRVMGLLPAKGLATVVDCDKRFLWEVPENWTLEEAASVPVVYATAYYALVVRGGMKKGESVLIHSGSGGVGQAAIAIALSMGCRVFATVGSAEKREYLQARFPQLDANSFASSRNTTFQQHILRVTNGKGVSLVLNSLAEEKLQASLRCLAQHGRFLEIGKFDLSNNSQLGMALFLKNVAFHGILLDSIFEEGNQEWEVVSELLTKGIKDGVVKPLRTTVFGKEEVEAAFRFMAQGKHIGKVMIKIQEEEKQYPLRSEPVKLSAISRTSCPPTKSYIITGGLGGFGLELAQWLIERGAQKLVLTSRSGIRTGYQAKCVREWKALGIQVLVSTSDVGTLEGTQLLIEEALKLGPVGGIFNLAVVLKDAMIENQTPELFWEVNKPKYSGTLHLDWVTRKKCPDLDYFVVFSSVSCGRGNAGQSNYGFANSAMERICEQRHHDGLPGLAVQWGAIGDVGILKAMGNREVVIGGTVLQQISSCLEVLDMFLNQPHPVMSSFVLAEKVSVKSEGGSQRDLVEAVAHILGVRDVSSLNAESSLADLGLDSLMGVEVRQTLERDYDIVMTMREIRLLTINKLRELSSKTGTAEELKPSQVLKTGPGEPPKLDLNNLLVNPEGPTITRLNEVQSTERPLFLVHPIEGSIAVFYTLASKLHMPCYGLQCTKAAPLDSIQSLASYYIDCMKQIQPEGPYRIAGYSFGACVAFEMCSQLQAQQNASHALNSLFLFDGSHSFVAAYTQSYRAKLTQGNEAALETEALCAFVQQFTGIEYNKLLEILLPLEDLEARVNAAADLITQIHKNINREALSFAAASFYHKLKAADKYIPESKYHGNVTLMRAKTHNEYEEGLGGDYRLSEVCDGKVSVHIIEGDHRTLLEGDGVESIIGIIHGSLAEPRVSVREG

With `Oc1ccc(/C=C/c2cc(O)cc(O)c2)cc1` [resveratrol, 3,5,4′-trihydroxystilbene] the IC50 was 48.6 µM.
